Experimental data published in patent publication US12187662B2, “FOXM1 inhibitor compositions and methods of using the same” (The Board of Trustees of the University of Illinois, priority 2018, dated 2025).
“Also recorded” adds a separate entry of the source. Where two headings read alike, the source gives them in different places.

Experiments:
[1] = test system: MCF10A cells; experiment: Cell proliferation, MCF10A (low FOXM1); format: cell-based, human; details: 6 days
Protocol: (§1) Cell lines and cell culture methods MCF7 and other breast cancer cell lines were obtained from the ATCC and were maintained and cultured as described (Bergamaschi et al., Breast Cancer Res., 2014, 16:436; Madak-Erdogan et al., Mol. Syst. Biol., 2013, 9:676; Zhao et al., Cancer Res., 2017, 77:5602-13). DT22 cells were derived from a human triple negative invasive ductal breast carcinoma and were grown in culture as described (Drews-Elger et al., Breast cancer research and treatment, 2014, 144:503-17). All cells were tested for mycoplasma using Real-Time PCR Mycoplasma Detection Kit (Akron Biotech, Boca Raton, FL).
(§2) Cell proliferation assay WST-1 assay (Roche, Basel, Switzerland) was used to quantify cell viability as described (Gong et al., Mol. Cell Endocrinol., 2016, 437:190-200). Absorbance was measured at 450 nm using a VICTOR X5 PerkinElmer 2030 Multilabel Plate Reader. All assays were performed in triplicate.

[2] = Pharmacokinetic studies in mice after single s.c. or oral dose; details: mice; for Blood levels after oral administration: 40 mg/kg oral
[3] = test system: MDA-MB-453 breast cancer cells; experiment: Cell proliferation, MDA-MB-453; format: cell-based, human; details: inhibition of cell proliferation
Protocol: as §1, §2

[4] = molecular target: T1, FOXM1 protein (Homo sapiens, UniProt Q08050); experiment: Competitive binding of inhibitors to FOXM1 by tr-FRET (Fl-NB-72 probe); details: tr-FRET competition with Fl-NB-72; Ki calculated from IC50 (Cheng-Prusoff)
T1 construct: a terbium donor was attached to purified full length FOXM1 through a streptavidin-biotin linker
T1 sequence (Q08050 1-763): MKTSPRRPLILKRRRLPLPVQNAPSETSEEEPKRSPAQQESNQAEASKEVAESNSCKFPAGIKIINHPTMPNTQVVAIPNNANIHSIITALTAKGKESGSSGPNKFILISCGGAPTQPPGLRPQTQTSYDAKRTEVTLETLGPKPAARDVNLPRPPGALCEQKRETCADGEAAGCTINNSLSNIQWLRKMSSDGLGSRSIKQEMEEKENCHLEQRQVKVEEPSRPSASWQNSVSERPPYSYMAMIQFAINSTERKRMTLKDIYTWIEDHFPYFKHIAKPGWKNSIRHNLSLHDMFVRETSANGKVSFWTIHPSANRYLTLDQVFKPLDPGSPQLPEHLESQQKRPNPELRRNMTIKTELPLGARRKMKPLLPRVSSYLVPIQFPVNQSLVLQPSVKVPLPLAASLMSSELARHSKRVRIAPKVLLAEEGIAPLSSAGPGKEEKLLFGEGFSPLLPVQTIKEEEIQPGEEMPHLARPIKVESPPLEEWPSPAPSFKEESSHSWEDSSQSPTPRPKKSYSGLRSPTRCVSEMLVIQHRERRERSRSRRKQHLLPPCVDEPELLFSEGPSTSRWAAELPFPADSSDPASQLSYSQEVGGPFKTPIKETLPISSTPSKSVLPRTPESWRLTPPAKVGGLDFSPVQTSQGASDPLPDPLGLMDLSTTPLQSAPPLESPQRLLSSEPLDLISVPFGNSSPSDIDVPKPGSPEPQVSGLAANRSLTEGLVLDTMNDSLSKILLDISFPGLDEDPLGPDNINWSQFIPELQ
Protocol: Competitive binding assays of FOXM1 inhibitor binding to FOXM1 by tr-FRET were conducted. All tr-FRET experiments used FRET buffer (20 mM Tris, pH 7.5, 50 mM NaCl, 0.01% NP-40 detergent, 10% glycerol) with 0.3 mg/ml ovalbumin and 0.1 mM butylated hydroxy-anisole added fresh daily. Solutions of the protein, fluorescent probe and inhibitor dilutions were prepared at 3× the final concentrations, the final dilution taking place as they were mixed together on the microtiter plate.
Final concentrations were 10^-5M to 10^-9M, with the last point being buffer only, no inhibitor. Fluorescein-NB-72 (Fl-NB-72) was prepared at 1 mM in DMF and stored at −20° C. It was diluted into plain FRET buffer to give 100 nM in the assay.
Incubations were done in duplicate on black Molecular Devices 96-well microtiter plates. […] To this were added 5 μL of the inhibitor dilutions, mixed and incubated, in the dark, at room temperature, for 1 h. […] Diffusion-enhanced FRET was determined by a parallel incubation without biotin-FOXM1 and subtracted as a background signal. Graphs were prepared using Graph Pad/Prism 4.

[5] = test system: MCF7 xenograft tumors; experiment: MCF7 breast cancer xenografts in ovariectomized NSG mice; format: in vivo, mouse; details: 100 mg/kg s.c. daily
Protocol: For examination of the growth of ER-positive MCF7 xenograft tumors, female NSG mice were ovariectomized, and 2 weeks after ovariectomy, animals were supplemented with 0.36 mg E2-pellets (60-day release, Innovative Research of America) to support ER+ tumor growth. Cell suspensions of wild type MCF7 cells (1×10^6 cells/mouse) were injected subcutaneously (sc) in the right axial mammary gland and when tumors reached 100-150 mm^3 in size, mice were randomized and received compound or control vehicle (corn oil) by s.c. injection or oral gavage (PEG400/PVP/Tween/CMC as Veh) at the frequency indicated and tumor volume (length><width 2/2) was monitored over time.

[6] = test system: DT22 cells; experiment: Cell proliferation assay (WST-1), DT22; format: cell-based, human
Protocol: (§3) All cells were tested for mycoplasma using Real-Time PCR Mycoplasma Detection Kit (Akron Biotech, Boca Raton, FL).
(§4) All assays were performed in triplicate.

[7] = test system: MCF7 cells; experiment: Cell proliferation assay (WST-1), MCF7; format: cell-based, human; details: read-out: IC50 MCF7
Protocol: as §3, §4

[8] = test system: FOXM1 target genes in MCF7 cells; experiment: FOXM1 target gene expression by qRT-PCR, MCF7; format: cell-based, human; details: MCF7, 24 h, at IC50 concentration
Protocol: (§5) RNA was extracted from cells and expression of different genes was monitored by qRT-PCR. Assays were run in triplicate. Values are mean±SEM. *, p<0.05; **, p<0.01; ***, p<0.001. RNA isolation and real-time PCR Total RNA was isolated using TRIzol (Invitrogen) and reverse transcribed using […] reverse transcriptase (New England BioLabs). Real-time PCR was performed using SYBRgreen PCR Master Mix (Roche) as described (Bergamaschi et al., Breast Cancer Res., 2014, 16:436). Relative mRNA levels of genes were normalized to the housekeeping gene 36B4, and fold change calculated relative to the vehicle treated samples. Results are the average±SD from at least two independent experiments carried out in triplicate. Primer sequences for the genes studied were obtained from the Harvard Primer Bank. Sequences are available on their website.

[9] = test system: FOXM1 target genes in DT22 cells; experiment: FOXM1 target gene expression by qRT-PCR, DT22; format: cell-based, human; details: DT22, 24 h, at IC50 concentration
Description: as §5, with “Real-time PCR was performed using SYBRgreen PCR Master Mix (Roche) as described (Bergamaschi et al., Breast Cancer Res., 2014, 16:436).” left out

[10] = test system: breast cancer cell lines; experiment: Proliferation of breast cancer cell lines (panel, line not specified); format: cell-based, human; details: for IC50: read-out: IC50 for inhibition of proliferation of breast cancer cell lines
Protocol: as §3, §4

[11] = test system: DT22 triple negative human breast tumor xenografts; experiment: DT22 triple negative breast tumor xenografts in NSG mice; format: in vivo, mouse
Protocol: In vivo breast cancer xenograft studies For examination of the growth of triple-negative DT22 breast tumors, intact female NOD/SCID-gamma (NSG) mice were used. DT-22 cells (1×10^6 cells/mouse) were injected s.c. into the right axial mammary gland. Mice received s.c. injection or oral gavage daily or every second or third day, as indicated, with vehicle or FOXM1 inhibitor compound, and tumor growth was monitored over time.

[12] = after IV administration; cited from earlier work
[13] = test system: FOXM1 and ERα; experiment: Cellular level of FOXM1 and ERα (Western blot, mRNA); format: cell-based, human; details: Western blot over time
Protocol: In-cell Western and Western blot assays Cells were cultured in 96-well plates at 3000 cells/well, and treated with compounds for the times indicated. Cells were washed twice in PBS, fixed with 4% formaldehyde (Fisher Scientific) solution in PBS, permeabilized in 0.1% Triton X-100 in PBS, blocked with Odyssey Blocking Buffer (LI-COR), and incubated with FOXM1 antibody (GeneTex, 102170) rabbit HC-20 ERa antibody (Santa Cruz, Cat #SC-543) or mouse F10 ERa antibody (Santa Cruz, Cat #SC8002) at 4 C overnight. Both IRDye 800 CW goat anti-rabbit secondary antibody (LI-COR, Cat #926-32211) and Cell Tag 700 (LI-COR, Cat #926-41090) were diluted (1:600) for incubation with cells. Plates were washed and staining signals were quantified and normalized with Cell Tag signals (to control for any differences in cell number per well) using LI-COR Odyssey infrared imaging system. Fold changes in protein levels were calculated relative to the vehicle treated WT samples. Results are the average±SD from at least three independent experiments, each performed with 4 wells per treatment condition. […]
RNA isolation and real-time PCR Total RNA was isolated using TRIzol (Invitrogen) and reverse transcribed using […] reverse transcriptase (New England BioLabs). […] Relative mRNA levels of genes were normalized to the housekeeping gene 36B4, and fold change calculated relative to the vehicle treated samples. […]

[14] = test system: MDA-MB-231 cells; experiment: Cell proliferation assay (WST-1), MDA-MB-231; format: cell-based, human; details: inhibition of cell proliferation; read-out: IC50 MDA-MB-231
Protocol: as §3, §4

[15] = inhibition of cell proliferation, read-out: IC50 DT-22
[16] = inhibition of cell proliferation
[17] = cell line not specified or several lines

Clc1ccc(C(=C2C3CC4CC(C3)CC2C4)c2ccc(OCCCCCCN3CCCC3)cc2)cc1 [NB-55, 1-(6-(4-((-((Z)-((5S,7S)-Adamantan-2-ylidene)(4-chlorophenyl)methyl)phenoxy)hexyl)pyrrolidine]
Concentration for 50% suppression of proliferation in MCF10A versus cells with high and intermediate FOXM1 [1]: five times higher | PK p.o. AUC0-48 ([2]; 40 mg/kg p.o.): 35.7 µM·h | PK p.o. t1/2 ([2]; 40 mg/kg p.o.): 16.6 h | PK s.c. AUC0-48 ([2]; 40 mg/kg s.c.): 34.7 µM·h | PK s.c. t1/2 ([2]; 40 mg/kg s.c.): 26.7 h | IC50 [3]: 3 to 5 µM | Ki [4]: 0.23 µM | Growth of MCF7 E2-treated xenograft tumors [5]: reduces; also recorded: reduced the growth | IC50 [6, 15]: 6 µM | IC50 [7, 16]: 3 µM | Expression of ATF3 (gene suppressed by FOXM1) [8]: increased | Expression of FOXM1 stimulated target genes (FOXM1C, AURKB, CCNB1, PLK1) [8]: significantly reduced | Expression of ATF3 (gene suppressed by FOXM1) [9]: increased | Expression of FOXM1 stimulated target genes (FOXM1C, AURKB, CCNB1, PLK1) [9]: significantly reduced | IC50 [10, 17]: 2 to 10 µM | Reduced potency in suppression of cell proliferation (versus salts) ([10]; cells in culture): 5 fold | Tumor suppression at lower doses ([11]; 20 or 40 mg/kg (data not shown)): only marginally effective | Growth of DT22 tumor xenografts ([11]; daily s.c. or oral, 100 mg/kg): effective tumor suppression; also recorded: very effectively suppressed

CCN(CC)c1ccc(C(c2ccc(N(CC)CC)cc2)=c2ccc3c(c2)CCc2ccccc2[N+]=3CCCN(C)C)cc1 [Imipramine Blue]
half-life t1/2 [12]: 0.183 h

C=C(NC(=O)C(=C)NC(=O)c1csc(C2=N[C@@H]3c4csc(n4)[C@H]4NC(=O)c5csc(n5)[C@H]([C@](C)(O)[C@@H](C)O)NC(=O)[C@H]5CSC(=N5)/C(=C/C)NC(=O)[C@H]([C@@H](C)O)NC(=O)c5csc(n5)[C@]3(CC2)NC(=O)[C@H](C)NC(=O)C(=C)NC(=O)[C@H](C)NC(=O)[C@H]([C@@H](C)CC)N[C@@H]2C=Cc3c([C@H](C)O)cc(nc3[C@H]2O)C(=O)O[C@@H]4C)n1)C(N)=O [thiostrepton, reference compound]
IC50 ([6]; Homo sapiens, DT-22, inhibition of cell proliferation): 3.6 µM | IC50 ([7]; Homo sapiens, MCF7, inhibition of cell proliferation): 1.4 µM | Cellular FOXM1 and ERα proteins [13]: downregulated | IC50 ([10]; Homo sapiens): 2 µM

Nc1c(C(=O)Nc2ccc(F)cc2)sc2nc(-c3cccs3)cc(C(F)(F)F)c12 [FDI-6, reference compound]
Blood levels after s.c. administration ([2]; 20 mg/kg s.c.): very low blood levels | Blood levels after oral administration ([2]; 40 mg/kg): undetectable | Blood levels after oral administration ([2]; listed as FDI 6, 40 mg/kg): not detectable | Ki [4]: 0.143 µM | IC50 [14]: 4.5 µM | IC50 [6, 15]: 4.8 µM | IC50 [7, 16]: 3.1 µM | Cellular FOXM1 and ERα proteins [13]: downregulated | IC50 [10, 17]: 8 µM
